Experimental data reported in patent US20060183119A1, “Method for determining predisposition to a physiological reaction in a patient” (UNIVERSITE LAVAL, priority 2002, published 2006).
Where “and” joins values, the source holds several entries; their conditions need not be identical. Equal entries are not always repeated.

Tests used:
Type in all cases: in vitro ADME
UGT1A7*8 = target: T1, UGT1A7*8 (Homo sapiens, UniProt Q9HAW7, E139D/N129K/R131K/W208R); assay: SN-38 glucuronidation by microsomes of HEK293 cells expressing UGT1A7*8; design: key to Function (SN-38G formation versus *1 allele): High: no significant difference in activity compared to *1 allele.; Low: significantly lower SN-38G formation versus *1 allele
T1 construct: expressed in transfected cells
T1 sequence (Q9HAW7 26-530 N129K/R131K/E139D/W208R): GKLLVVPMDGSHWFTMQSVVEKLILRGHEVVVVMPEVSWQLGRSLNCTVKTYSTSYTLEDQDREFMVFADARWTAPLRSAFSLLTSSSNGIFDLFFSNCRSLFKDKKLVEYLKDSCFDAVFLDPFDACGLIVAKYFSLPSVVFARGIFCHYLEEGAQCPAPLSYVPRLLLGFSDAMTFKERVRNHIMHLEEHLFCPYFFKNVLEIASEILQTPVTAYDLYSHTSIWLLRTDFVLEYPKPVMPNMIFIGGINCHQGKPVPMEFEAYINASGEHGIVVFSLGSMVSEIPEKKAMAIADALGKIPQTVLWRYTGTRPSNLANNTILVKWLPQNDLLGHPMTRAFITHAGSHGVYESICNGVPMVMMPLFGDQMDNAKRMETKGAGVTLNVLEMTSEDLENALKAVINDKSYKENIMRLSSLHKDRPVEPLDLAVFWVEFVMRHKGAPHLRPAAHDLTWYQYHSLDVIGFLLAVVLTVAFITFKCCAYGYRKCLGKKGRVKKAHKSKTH
Protocol: Western blot analyses of UGT1A7 and UGT1A9 variants expressed in HEK293 cells were performed on microsomal proteins (10 μg) separated on a 10% SDS-polyacrylamide gel. After transferring the proteins, the membranes were probed with an anti-UGT1A RC-71 polyclonal antibody and with an anti-calnexin antibody. The relative levels of UGT1A9 (a) and UGT1A7 proteins (b) were determined by semi-quantitative densitometric analysis of the Enhanced chemiluminescence (ECL) image. The in vitro SN-38 activity was assessed using microsomal fractions prepared from HEK293 cells expressing the *1 and variant UGT1A9 (c) and UGT1A7 (d) alleles and incubated with 5 μM of SN-38 as described in Materials and Methods.
(§1) For the determination of Vmax and Km.

human liver microsomes [1] = assay: SN-38 glucuronidation kinetics with commercially available human liver microsomes
From the text: as §1

human liver microsomes [2] = assay: SN-38 glucuronide formation by human liver microsome samples of patients; conditions: N 48
From the text: To obtain statistical data on interindividual variation of SN-38 glucuronidation, we measured the SN-38-G formation, as currently known in the background art, with microsomes preparations from each patient liver sample. The glucuronide formation rates were regrouped into ranges and every sample was categorized within these ranges.

SMILES: CCc1c2c(nc3ccc(O)cc13)-c1cc3c(c(=O)n1C2)COC(=O)[C@]3(O)CC [SN-38, 7-ethyl-10-hydroxycamptothecin]
- SN-38 glucuronidating activity of the allele (in words) (UGT1A7*8): low
- Function (SN-38G formation versus *1 allele) (UGT1A7*8; in vitro experiments): Low
- lower rates of SN-38G formation compared to UGT1A7*1 (UGT1A7*8; range given for *5, *7 and *8 together): 38-76%
- Km (human liver microsomes [1]; SN-38, LCQ detector): 6.8 ± 3 µM
- Km (human liver microsomes [1]; SN-38, fluorescent detection): 4.8 ± 0.8 µM
- SN-38 glucuronide formation, glucuronidation rate, Mean (human liver microsomes [2]): 0.61 pmol/mg of protein/minute and 0.6118 pmol/mg of protein/minute
- SN-38 glucuronide formation, quantile 0.0% minimum (human liver microsomes [2]): 0.1063 pmol/mg of protein/minute
- SN-38 glucuronide formation, quantile 0.5% (human liver microsomes [2]): 0.1063 pmol/mg of protein/minute
- SN-38 glucuronide formation, quantile 2.5% (human liver microsomes [2]): 0.1113 pmol/mg of protein/minute
- SN-38 glucuronide formation, quantile 10.0% (human liver microsomes [2]): 0.1641 pmol/mg of protein/minute
- SN-38 glucuronide formation, quantile 25.0% quartile (human liver microsomes [2]): 0.2763 pmol/mg of protein/minute
- SN-38 glucuronide formation, quantile 50.0% median (human liver microsomes [2]): 0.4204 pmol/mg of protein/minute
- SN-38 glucuronide formation, quantile 75.0% quartile (human liver microsomes [2]): 0.9279 pmol/mg of protein/minute
- SN-38 glucuronide formation, quantile 90.0% (human liver microsomes [2]): 1.5699 pmol/mg of protein/minute
- SN-38 glucuronide formation, quantile 97.5% (human liver microsomes [2]): 1.9309 pmol/mg of protein/minute
- SN-38 glucuronide formation, quantile 99.5% (human liver microsomes [2]): 1.9735 pmol/mg of protein/minute
- SN-38 glucuronide formation, quantile 100.0% maximum (human liver microsomes [2]): 1.9735 pmol/mg of protein/minute
